In PubChem BioAssay (NCI):
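In this assay, cells in 96-well plates receive the compound at five concentrations for 48 hours. Endpoints are linearly interpolated between the surrounding concentrations. TGI: concentration producing complete growth inhibition.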

Experiments:
Assay in all cases: inhibition of tumour cell growth, NCI panel, 48 h
HOP-62 NSCLC = test system: HOP-62 NSCLC
A498 renal = test system: A498 renal
MCF7 breast = test system: MCF7 breast
SK-MEL-2 melanoma = test system: SK-MEL-2 melanoma
TK-10 renal = test system: TK-10 renal
786-0 renal = test system: 786-0 renal
KM12 colon = test system: KM12 colon
T-47D breast = test system: T-47D breast
MDA-MB-231 breast = test system: MDA-MB-231 breast
SK-MEL-28 melanoma = test system: SK-MEL-28 melanoma
MDA-N = test system: MDA-N
OVCAR-5 ovarian = test system: OVCAR-5 ovarian
HOP-92 NSCLC = test system: HOP-92 NSCLC
M14 melanoma = test system: M14 melanoma
HS 578T breast = test system: HS 578T breast
UACC-62 melanoma = test system: UACC-62 melanoma
A549 NSCLC = test system: A549 NSCLC
SK-MEL-5 melanoma = test system: SK-MEL-5 melanoma
SNB-75 CNS = test system: SNB-75 CNS
UACC-257 melanoma = test system: UACC-257 melanoma
U251 CNS = test system: U251 CNS
HCT-116 colon = test system: HCT-116 colon
UO-31 renal = test system: UO-31 renal
BT-549 breast = test system: BT-549 breast
MDA-MB-435 = test system: MDA-MB-435
CCRF-CEM leukemia = test system: CCRF-CEM leukemia
DU-145 prostate = test system: DU-145 prostate
ACHN renal = test system: ACHN renal
OVCAR-8 ovarian = test system: OVCAR-8 ovarian
SNB-19 CNS = test system: SNB-19 CNS
COLO 205 colon = test system: COLO 205 colon
RPMI-8226 leukemia = test system: RPMI-8226 leukemia
EKVX NSCLC = test system: EKVX NSCLC
SK-OV-3 ovarian = test system: SK-OV-3 ovarian
HCT-15 colon = test system: HCT-15 colon
CAKI-1 renal = test system: CAKI-1 renal
RXF 393 renal = test system: RXF 393 renal
PC-3 prostate = test system: PC-3 prostate
LOX IMVI melanoma = test system: LOX IMVI melanoma
SN12C renal = test system: SN12C renal
SW-620 colon = test system: SW-620 colon
HT29 colon = test system: HT29 colon
SF-268 CNS = test system: SF-268 CNS
K-562 leukemia = test system: K-562 leukemia
IGROV1 ovarian = test system: IGROV1 ovarian
SF-295 CNS = test system: SF-295 CNS
OVCAR-4 ovarian = test system: OVCAR-4 ovarian
MOLT-4 leukemia = test system: MOLT-4 leukemia
HL-60(TB) leukemia = test system: HL-60(TB) leukemia
NCI/ADR-RES ovarian = test system: NCI/ADR-RES ovarian
OVCAR-3 ovarian = test system: OVCAR-3 ovarian
SR leukemia = test system: SR leukemia
NCI-H23 lung = test system: NCI-H23 lung
MALME-3M melanoma = test system: MALME-3M melanoma
NCI-H226 lung = test system: NCI-H226 lung
NCI-H522 lung = test system: NCI-H522 lung
SF-539 CNS = test system: SF-539 CNS
HCC-2998 colon = test system: HCC-2998 colon
NCI-H460 lung = test system: NCI-H460 lung

COc1cc(/C=C2\CCC(C)/C(=C\c3cc(OC)c(OC)c(OC)c3)C2=O)cc(OC)c1OC (centres undefined)
TGI (HOP-62 NSCLC): 9.3 µM
TGI (A498 renal): 6.06 µM
TGI (MCF7 breast): > 100 µM
TGI (SK-MEL-2 melanoma): 3.37 µM
TGI (TK-10 renal): 14 µM
TGI (786-0 renal): > 100 µM
TGI (KM12 colon): 8.46 µM
TGI (T-47D breast): > 100 µM
TGI (MDA-MB-231 breast): > 100 µM
TGI (SK-MEL-28 melanoma): 25.2 µM
TGI (MDA-N): 16.1 µM
TGI (OVCAR-5 ovarian): 14.2 µM
TGI (HOP-92 NSCLC): > 100 µM
TGI (M14 melanoma): 4.42 µM
TGI (HS 578T breast): > 100 µM
TGI (UACC-62 melanoma): 6.89 µM
TGI (A549 NSCLC): > 100 µM
TGI (SK-MEL-5 melanoma): 5.7 µM
TGI (SNB-75 CNS): 50.8 µM
TGI (UACC-257 melanoma): 21.3 µM
TGI (U251 CNS): > 100 µM
TGI (HCT-116 colon): > 100 µM
TGI (UO-31 renal): > 100 µM
TGI (BT-549 breast): 3.53 µM
TGI (MDA-MB-435): > 100 µM
TGI (CCRF-CEM leukemia): 4.1 µM
TGI (DU-145 prostate): > 100 µM
TGI (ACHN renal): 13.1 µM
TGI (OVCAR-8 ovarian): 9.52 µM
TGI (SNB-19 CNS): 18.4 µM
TGI (COLO 205 colon): 5.2 µM
TGI (RPMI-8226 leukemia): 0.901 µM
TGI (EKVX NSCLC): 16.3 µM
TGI (SK-OV-3 ovarian): 62 µM
TGI (HCT-15 colon): 6.57 µM
TGI (CAKI-1 renal): 6.71 µM
TGI (RXF 393 renal): 6.36 µM
TGI (PC-3 prostate): 11.1 µM
TGI (LOX IMVI melanoma): > 100 µM
TGI (SN12C renal): 19.2 µM
TGI (SW-620 colon): > 100 µM
TGI (HT29 colon): 10.9 µM
TGI (SF-268 CNS): 34.4 µM
TGI (K-562 leukemia): 6.26 µM
TGI (IGROV1 ovarian): 6.58 µM

O=[N+]([O-])c1cccc2c(N=Nc3ccc4ccccc4c3O)c(O)cc(S(=O)(=O)O)c12
TGI (HOP-62 NSCLC): > 100 µM
TGI (SF-295 CNS): > 100 µM
TGI (SK-MEL-2 melanoma): > 100 µM
TGI (TK-10 renal): > 100 µM
TGI (OVCAR-4 ovarian): > 100 µM
TGI (786-0 renal): > 100 µM
TGI (KM12 colon): > 100 µM
TGI (MOLT-4 leukemia): > 100 µM
TGI (SK-MEL-28 melanoma): > 100 µM
TGI (MDA-N): > 100 µM
TGI (HL-60(TB) leukemia): 91.5 µM
TGI (OVCAR-5 ovarian): > 100 µM
TGI (HOP-92 NSCLC): > 100 µM
TGI (M14 melanoma): 51.2 µM
TGI (HS 578T breast): > 100 µM
TGI (UACC-62 melanoma): > 100 µM
TGI (A549 NSCLC): > 100 µM
TGI (NCI/ADR-RES ovarian): > 100 µM
TGI (OVCAR-3 ovarian): > 100 µM
TGI (SK-MEL-5 melanoma): > 100 µM
TGI (SR leukemia): > 100 µM
TGI (NCI-H23 lung): > 100 µM
TGI (MALME-3M melanoma): 80.6 µM
TGI (SNB-75 CNS): > 100 µM
TGI (UACC-257 melanoma): > 100 µM
TGI (U251 CNS): > 100 µM
TGI (HCT-116 colon): > 100 µM
TGI (UO-31 renal): 56.1 µM
TGI (BT-549 breast): > 100 µM
TGI (MDA-MB-435): > 100 µM
TGI (CCRF-CEM leukemia): 66.7 µM
TGI (ACHN renal): > 100 µM
TGI (OVCAR-8 ovarian): > 100 µM
TGI (SNB-19 CNS): > 100 µM
TGI (RPMI-8226 leukemia): > 100 µM
TGI (EKVX NSCLC): > 100 µM
TGI (SK-OV-3 ovarian): > 100 µM
TGI (HCT-15 colon): > 100 µM
TGI (CAKI-1 renal): > 100 µM
TGI (RXF 393 renal): > 100 µM
TGI (PC-3 prostate): > 100 µM
TGI (LOX IMVI melanoma): > 100 µM
TGI (SN12C renal): > 100 µM
TGI (SW-620 colon): > 100 µM
TGI (HT29 colon): > 100 µM
TGI (SF-268 CNS): > 100 µM
TGI (NCI-H226 lung): > 100 µM
TGI (K-562 leukemia): > 100 µM
TGI (NCI-H522 lung): > 100 µM
TGI (IGROV1 ovarian): > 100 µM

Cc1cc(O)c(-c2cc(O)c(C)cc2O)cc1O
TGI (HOP-62 NSCLC): 32.6 µM
TGI (SF-539 CNS): 9.35 µM
TGI (A498 renal): 41.8 µM
TGI (MCF7 breast): 47.6 µM
TGI (SF-295 CNS): 31.2 µM
TGI (SK-MEL-2 melanoma): 33 µM
TGI (TK-10 renal): 16 µM
TGI (OVCAR-4 ovarian): 20.9 µM
TGI (786-0 renal): 8.55 µM
TGI (KM12 colon): 27.5 µM
TGI (MOLT-4 leukemia): 5.21 µM
TGI (T-47D breast): 5.26 µM
TGI (MDA-MB-231 breast): 33.3 µM
TGI (SK-MEL-28 melanoma): 22.7 µM
TGI (MDA-N): 22.9 µM
TGI (HL-60(TB) leukemia): 3.88 µM
TGI (OVCAR-5 ovarian): 32.9 µM
TGI (HOP-92 NSCLC): 6.22 µM
TGI (M14 melanoma): 22.9 µM
TGI (HS 578T breast): > 72.2 µM
TGI (UACC-62 melanoma): 29.8 µM
TGI (A549 NSCLC): 49.5 µM
TGI (NCI/ADR-RES ovarian): 97.1 µM
TGI (OVCAR-3 ovarian): 5.12 µM
TGI (SK-MEL-5 melanoma): 28.4 µM
TGI (NCI-H23 lung): 38.9 µM
TGI (MALME-3M melanoma): 25.5 µM
TGI (SNB-75 CNS): 29 µM
TGI (UACC-257 melanoma): 20.1 µM
TGI (U251 CNS): 30.3 µM
TGI (HCT-116 colon): 21.7 µM
TGI (UO-31 renal): 5.4 µM
TGI (BT-549 breast): 26.7 µM
TGI (MDA-MB-435): 9.32 µM
TGI (CCRF-CEM leukemia): 3.8 µM
TGI (DU-145 prostate): 28.5 µM
TGI (ACHN renal): 13.7 µM
TGI (OVCAR-8 ovarian): 16.7 µM
TGI (SNB-19 CNS): 40.2 µM
TGI (COLO 205 colon): 22.6 µM
TGI (RPMI-8226 leukemia): 4.07 µM
TGI (EKVX NSCLC): 28.7 µM
TGI (SK-OV-3 ovarian): 30.5 µM
TGI (HCC-2998 colon): 27.3 µM
TGI (HCT-15 colon): > 51.1 µM
TGI (CAKI-1 renal): 14.6 µM
TGI (RXF 393 renal): 5.93 µM
TGI (PC-3 prostate): 27.6 µM
TGI (NCI-H460 lung): 39.8 µM
TGI (LOX IMVI melanoma): 16.6 µM
TGI (SN12C renal): 13.6 µM
TGI (SW-620 colon): 6 µM
TGI (HT29 colon): > 53.1 µM
TGI (SF-268 CNS): 37.8 µM
TGI (NCI-H226 lung): 46.4 µM
TGI (K-562 leukemia): 4.65 µM
TGI (NCI-H522 lung): 12.2 µM
TGI (IGROV1 ovarian): 25.9 µM

O=C1c2cccc3cccc(c23)C(=O)N1O
TGI (SF-539 CNS): > 100 µM
TGI (A498 renal): > 100 µM
TGI (MCF7 breast): > 100 µM
TGI (SF-295 CNS): > 100 µM
TGI (SK-MEL-2 melanoma): > 100 µM
TGI (TK-10 renal): > 100 µM
TGI (OVCAR-4 ovarian): > 100 µM
TGI (786-0 renal): > 100 µM
TGI (KM12 colon): > 100 µM
TGI (MOLT-4 leukemia): > 100 µM
TGI (T-47D breast): > 100 µM
TGI (MDA-MB-231 breast): > 100 µM
TGI (SK-MEL-28 melanoma): > 100 µM
TGI (MDA-N): > 100 µM
TGI (HL-60(TB) leukemia): > 100 µM
TGI (OVCAR-5 ovarian): > 100 µM
TGI (HOP-92 NSCLC): 94.5 µM
TGI (M14 melanoma): > 100 µM
TGI (HS 578T breast): > 100 µM
TGI (UACC-62 melanoma): > 100 µM
TGI (A549 NSCLC): > 100 µM
TGI (NCI/ADR-RES ovarian): > 100 µM
TGI (OVCAR-3 ovarian): > 100 µM
TGI (SK-MEL-5 melanoma): > 100 µM
TGI (NCI-H23 lung): > 100 µM
TGI (MALME-3M melanoma): > 100 µM
TGI (SNB-75 CNS): 80.2 µM
TGI (UACC-257 melanoma): > 100 µM
TGI (U251 CNS): > 100 µM
TGI (HCT-116 colon): > 100 µM
TGI (UO-31 renal): > 100 µM
TGI (BT-549 breast): > 100 µM
TGI (MDA-MB-435): > 100 µM
TGI (CCRF-CEM leukemia): > 100 µM
TGI (DU-145 prostate): > 100 µM
TGI (ACHN renal): > 100 µM
TGI (OVCAR-8 ovarian): > 100 µM
TGI (SNB-19 CNS): > 100 µM
TGI (COLO 205 colon): > 100 µM
TGI (RPMI-8226 leukemia): > 100 µM
TGI (EKVX NSCLC): > 100 µM
TGI (SK-OV-3 ovarian): > 100 µM
TGI (HCC-2998 colon): > 100 µM
TGI (HCT-15 colon): > 100 µM
TGI (CAKI-1 renal): > 100 µM
TGI (RXF 393 renal): 68.5 µM
TGI (PC-3 prostate): > 100 µM
TGI (NCI-H460 lung): > 100 µM
TGI (LOX IMVI melanoma): > 100 µM
TGI (SN12C renal): > 100 µM
TGI (SW-620 colon): > 100 µM
TGI (HT29 colon): > 100 µM
TGI (SF-268 CNS): > 100 µM
TGI (K-562 leukemia): > 100 µM
TGI (NCI-H522 lung): > 100 µM
TGI (IGROV1 ovarian): > 100 µM
